The subject of experiment [1] is heart rate, conscious dog. Put plainly: Effect increasing the heart rate in the conscious dog (tachycardia). The class given is in vivo. The conditions noted are these: for ED50: Canis lupus familiaris, dose for increase of 50 beats/min. The method, then: The substances were either injected intravenously or administered orally, and the heart rate was measured using a tachygraph. After a control period, increasing doses of the compound were administered in order to increase the heart rate. In each case, the next dose was administered when the effect of the preceding dose was no longer evident. The dose of a substance which brought about an increase of 50 beats/min. (ED50) was determined graphically. Each substance was examined on 3 to 5 dogs.

Experiment [2] has as its target T1, muscarinic receptors, heart atrium (Rattus norvegicus, UniProt P10980).
T1 construct: the heart, the bronchi and the lacrimal glands were removed; from tissue; host or cells: rat heart atrium, labelled in vivo
T1 sequence (P10980 1-466): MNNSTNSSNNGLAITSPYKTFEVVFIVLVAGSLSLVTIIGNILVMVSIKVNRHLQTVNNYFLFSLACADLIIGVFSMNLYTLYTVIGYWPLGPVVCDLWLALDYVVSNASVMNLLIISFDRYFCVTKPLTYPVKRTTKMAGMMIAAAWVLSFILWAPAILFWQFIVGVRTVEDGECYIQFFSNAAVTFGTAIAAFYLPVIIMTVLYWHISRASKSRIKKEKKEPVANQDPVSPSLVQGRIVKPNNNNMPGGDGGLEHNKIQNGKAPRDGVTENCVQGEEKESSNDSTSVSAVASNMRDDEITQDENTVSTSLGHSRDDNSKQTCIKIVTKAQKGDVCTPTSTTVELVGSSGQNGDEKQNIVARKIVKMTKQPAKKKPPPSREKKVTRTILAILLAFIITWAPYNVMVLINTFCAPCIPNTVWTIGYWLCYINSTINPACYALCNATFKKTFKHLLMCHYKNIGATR
Put plainly: Receptor binding assay in vivo, heart atrium. Set-up: species or system female rats. To be noted: iv, 0.5 h, read-out: ID50, heart atrium. The method, then: (§1) Female rats with a body weight of about 200 g were used for these experiments. Before the start of the experiment, the animals were anaesthetised with a dose of 1.25 g/kg urethane. The animals each received the specified dose of the test substance by i.v. injection. After 15 minutes had elapsed 113 ng/kg ^3 H-N-methylscopolamine (^3 H-NMS) were administered in the same way. After a further 15 minutes, the animals were sacrificed, and the heart, the bronchi and the lacrimal glands were removed. These organs were dissolved in Soluene R, and the radioactivity was determined. These measurements were assumed to be the total binding. […] ID50 values were determined for the individual organs from these experiments.

Experiment [3] addresses T2, muscarinic receptors, submandibular gland (Rattus norvegicus, UniProt P08483).
T2 construct: After removal of the heart, submandibular gland and cerebral cortex; from tissue; host or cells: rat submandibular gland homogenate
The experiment can be described thus: Receptor binding assay in vitro, submandibular gland (3H-NMS displacement). More on the design: species or system male Sprague-Dawley rats. To be noted: rat submandibular gland homogenate; 0.3 nmolar 3H-NMS, 30° C., 45 min, pH 7.4.

The target in experiment [4] is T3, muscarinic receptors, heart ventricle (Rattus norvegicus, UniProt P10980).
T3 construct: the heart, the bronchi and the lacrimal glands were removed; from tissue; host or cells: rat heart ventricle, labelled in vivo
T3 sequence (P10980 1-466): T1 sequence (P10980 1-466)
Put plainly: Receptor binding assay in vivo, heart ventricle. More on the design: species or system female rats. To be noted: iv, 0.5 h, read-out: ID50, heart ventricle. The procedure: as §1

The target in experiment [5] is T4, M1 (Rattus norvegicus, UniProt P08482).
T4 construct: from tissue; host or cells: living male THOM rat, sympathetic ganglia (site by own knowledge)
T4 sequence (P08482 1-460): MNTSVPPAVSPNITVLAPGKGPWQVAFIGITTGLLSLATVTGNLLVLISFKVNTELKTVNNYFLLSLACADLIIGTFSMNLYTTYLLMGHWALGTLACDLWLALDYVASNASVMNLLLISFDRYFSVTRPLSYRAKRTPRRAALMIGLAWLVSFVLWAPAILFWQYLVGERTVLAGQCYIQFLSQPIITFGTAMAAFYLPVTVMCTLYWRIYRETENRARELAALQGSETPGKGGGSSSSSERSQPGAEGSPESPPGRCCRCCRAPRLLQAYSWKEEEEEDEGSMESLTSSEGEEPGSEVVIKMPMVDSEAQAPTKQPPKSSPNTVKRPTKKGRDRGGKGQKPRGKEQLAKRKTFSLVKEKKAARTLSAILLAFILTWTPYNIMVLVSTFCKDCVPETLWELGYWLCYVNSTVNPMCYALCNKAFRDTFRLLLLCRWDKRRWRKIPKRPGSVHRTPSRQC
Put plainly: M1/M2 selectivity in the rat: M1-activity (increase in blood pressure caused by McN-A-343). The format is in vivo, male THOM rats. To be noted: iv, read-out: M1-activity (rat) ED50. The procedure:
The dose of the substances which reduced either the vagal bradycardia (M2) or the increase in blood pressure (M1) by 50% was determined graphically.

The target in experiment [6] is T5, muscarinic receptors of the atrium (Cavia porcellus, UniProt H0VRN8).
T5 construct: In the isolated, spontaneously beating right atrium, M reduced the heart rate; from tissue; host or cells: guinea pig isolated right atrium
T5 sequence (H0VRN8 1-466): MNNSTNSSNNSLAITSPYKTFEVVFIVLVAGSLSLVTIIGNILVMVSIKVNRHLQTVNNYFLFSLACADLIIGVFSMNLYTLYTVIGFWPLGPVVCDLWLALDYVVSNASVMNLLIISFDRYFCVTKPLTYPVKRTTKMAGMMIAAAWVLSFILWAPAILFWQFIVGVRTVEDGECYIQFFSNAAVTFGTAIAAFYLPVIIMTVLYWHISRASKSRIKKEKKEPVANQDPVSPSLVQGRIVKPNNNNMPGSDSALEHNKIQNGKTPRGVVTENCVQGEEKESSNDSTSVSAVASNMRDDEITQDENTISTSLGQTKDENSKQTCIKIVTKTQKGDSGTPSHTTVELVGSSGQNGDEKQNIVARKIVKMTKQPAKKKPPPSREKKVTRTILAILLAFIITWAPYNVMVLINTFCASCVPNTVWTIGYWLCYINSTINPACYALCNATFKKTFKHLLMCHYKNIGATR
Put plainly: Dissociation constants in vitro on the spontaneously beating right atrium. More on the design: species or system guinea pig. To be noted: methacholine agonist, 30 min contact, Arunlakshana and Schild, read-out: Dissociation constant KB, heart. The method, then:
(§2) Dissociation constants (KB values) were determined "in vitro" on the ileum and spontaneously beating atrium of the guinea pig. The ileum was removed and incubated in Krebs-Henseleit solution in an organ bath. Contractions were induced by increasing concentrations of methacholine (M) in such a way that it was possible to construct complete concentration-effect curves. Then M was washed out, the substance to be investigated was added and left in contact for 30 minutes, and again a concentration-effect curve with M was constructed.
Dissociation constants for the muscarinic receptors of the atrium were obtained in the same way as described above. Comparison of the dissociation constants determined in the two tissues permitted cardioselective substances to be identified.

Experiment [7] relates to pilocarpine-induced secretion of saliva. The experiment can be described thus: Effect inhibiting secretion of saliva in the rat. To be noted: iv, 2 mg/kg pilocarpine s.c., urethane anaesthesia, read-out: Inhibition of secretion of saliva (rat) ED50. The class given is in vivo, male THOM rats. The method, then:
Secretion of saliva was induced by s.c. administration of 2 mg/kg pilocarpine. The saliva was absorbed using blotting paper, and the area covered by it was determined by planimetry every 5 minutes. The dose of the substance which reduced the volume of saliva by 50% was determined graphically.

In experiment [8] the target is T6, muscarinic receptors, complete heart (Rattus norvegicus, UniProt P10980).
T6 sequence (P10980 1-466): T1 sequence (P10980 1-466)
The experiment can be described thus: biochemical.

The target of experiment [9] is T7, muscarinic receptors, lacrimal glands (Rattus norvegicus, UniProt P08483).
T7 construct: the heart, the bronchi and the lacrimal glands were removed; from tissue; host or cells: rat lacrimal glands, labelled in vivo
Put plainly: Receptor binding assay in vivo, lacrimal gland. Set-up: species or system female rats. The conditions noted are these: iv, 0.5 h, read-out: ID50, lacrimal gland. The procedure: as §1

Experiment [10] has as its target muscarinic receptors, cerebral cortex. Put plainly: Receptor binding assay in vitro, cerebral cortex (3H-NMS displacement). More on the design: species or system male Sprague-Dawley rats. The conditions noted are these: rat cerebral cortex homogenate; 0.3 nmolar 3H-NMS, 30° C., 45 min, pH 7.4.
Description: The organ donors were male Sprague-Dawley rats with a body weight of 180-220 g. […] Finally, all the organs were processed in a potter homogeniser. […] The organ homogenates were incubated at a defined concentration of the radio-ligand and a series of concentrations of the non-radioactive test substances in Eppendorf centrifuge tubes at 30° C. The incubation lasted 45 minutes. The radioligand used was 0.3 nmolar ^3 H-N-methylscopolamine (^3 H-NMS). The incubation was stopped by addition of ice-cold buffer, followed by a vacuum filtration. The filters were washed with cold buffer, and their radioactivity was determined. This represents the total of specific and non-specific binding of ^3 H-NMS. The contribution of the non-specific binding was defined as that radioactivity which was bound in the presence of 1 micromolar quinuclidinyl benzylate. Determinations were always carried out in quadruplicate. The IC50 values of the unlabelled test substances were determined graphically.
The target in experiment [11] is T8, muscarinic receptors, ileum (Cavia porcellus, UniProt H0W1Z3).
T8 construct: The ileum was removed and incubated in Krebs-Henseleit solution in an organ bath; from tissue; host or cells: guinea pig isolated ileum
Put plainly: Dissociation constants in vitro on the ileum. Set-up: species or system guinea pig. The conditions noted are these: ileum contractions; methacholine agonist; 30 min contact; Arunlakshana and Schild; read-out: Dissociation constant KB, ileum. The method, then: as §2

In experiment [12] the target is T9, M2 (Rattus norvegicus, UniProt P10980).
T9 construct: The bradycardia induced by stimulation of the vagus; from tissue; host or cells: living male THOM rat, heart
T9 sequence (P10980 1-466): T1 sequence (P10980 1-466)
Put plainly: M1/M2 selectivity in the rat: M2-activity (vagal bradycardia). The class given is in vivo, male THOM rats. The conditions noted are these: iv, read-out: M2-activity (rat) ED50. The procedure:
The method which was used has been described by Hammer and Giachetti (Life Sciences 31, 2991-2998 (1982)). Five minutes after intravenous injection of increasing doses of the substance, either the right vagus was electrically stimulated (frequency: 25 Hz; pulse width: 2ms; stimulus duration: 30s; number of volts: supramaximal) or 0.3 mg/kg McN-A-343 was injected intravenously into male THOM rats. The bradycardia induced by stimulation of the vagus, and the increase in blood pressure caused by McN-A-343, were determined. The dose of the substances which reduced either the vagal bradycardia (M2) or the increase in blood pressure (M1) by 50% was determined graphically.

Experiment [13] deals with muscarinic receptors, bronchi. Put plainly: Receptor binding assay in vivo, bronchi. Set-up: species or system female rats. The conditions noted are these: i.v.; inhibition of 50% of specific 3H-NMS binding; 30 min. The method, then: as §1

Read-outs that look alike come from different tables or passages of the source.

Data on 4 compounds can be found in patent US4971966A, “Substituted pyrido(2,3-B) (1,4) benzodiazepin-6-ones, and medicaments containing these compounds” (Karl Thomae GmbH, priority 1986, dated 1990).

T7 sequence (P08483 whole entry): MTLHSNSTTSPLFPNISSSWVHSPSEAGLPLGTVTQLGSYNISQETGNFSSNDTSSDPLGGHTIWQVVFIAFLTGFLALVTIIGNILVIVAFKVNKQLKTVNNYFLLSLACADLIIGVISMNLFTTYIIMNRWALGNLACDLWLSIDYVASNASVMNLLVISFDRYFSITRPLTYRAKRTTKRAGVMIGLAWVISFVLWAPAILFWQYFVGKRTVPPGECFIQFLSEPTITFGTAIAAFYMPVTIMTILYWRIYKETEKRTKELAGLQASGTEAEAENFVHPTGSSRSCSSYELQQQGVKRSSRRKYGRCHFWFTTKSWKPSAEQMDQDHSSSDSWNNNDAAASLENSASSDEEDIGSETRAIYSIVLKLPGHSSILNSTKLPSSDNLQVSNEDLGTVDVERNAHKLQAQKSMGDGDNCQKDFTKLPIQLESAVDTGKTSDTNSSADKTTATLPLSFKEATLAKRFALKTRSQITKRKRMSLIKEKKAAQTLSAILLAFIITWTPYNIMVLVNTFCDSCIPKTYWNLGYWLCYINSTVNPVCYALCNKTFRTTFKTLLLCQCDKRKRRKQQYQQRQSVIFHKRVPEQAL
T2 sequence (P08483 whole entry): as above
T8 sequence (H0W1Z3 1-590): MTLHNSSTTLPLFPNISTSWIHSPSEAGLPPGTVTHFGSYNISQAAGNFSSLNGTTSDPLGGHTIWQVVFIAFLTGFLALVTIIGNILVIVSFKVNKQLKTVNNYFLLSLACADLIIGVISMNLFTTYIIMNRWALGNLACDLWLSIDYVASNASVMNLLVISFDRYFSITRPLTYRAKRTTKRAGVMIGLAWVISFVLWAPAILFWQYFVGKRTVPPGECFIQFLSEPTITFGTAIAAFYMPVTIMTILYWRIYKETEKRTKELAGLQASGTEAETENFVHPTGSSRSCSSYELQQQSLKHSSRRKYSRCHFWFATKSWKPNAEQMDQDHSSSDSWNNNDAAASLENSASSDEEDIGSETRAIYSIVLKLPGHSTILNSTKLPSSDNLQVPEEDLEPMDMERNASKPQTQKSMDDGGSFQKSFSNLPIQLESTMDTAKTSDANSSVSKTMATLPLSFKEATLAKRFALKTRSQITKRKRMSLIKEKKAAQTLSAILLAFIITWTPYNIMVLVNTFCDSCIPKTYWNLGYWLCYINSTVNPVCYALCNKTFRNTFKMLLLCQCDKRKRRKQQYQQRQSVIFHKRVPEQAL

As to `CCN(CC)CC1CCCCN1CC(=O)N1c2cc(Cl)ccc2C(=O)Nc2cccnc21` (stereo not drawn) [Substance A, 9-chloro-11-[[2-[(diethylamino)methyl]-1-piperidinyl]-acetyl]-5,11-dihydro-6H-pyrido[2,3-b]-[1,4]benzodiazepin-6-one], the ED50 in [1] (intravenous, read-out: Tachycardia (dog) ED50 intravenous) is 0.17 mg/kg; in [1] (oral, read-out: Tachycardia (dog) ED50 oral) it was 0.38 mg/kg; in experiment [2], 0.6 mg/kg; in [4], 0.3 mg/kg; in experiment [5] (50% reduction of McN-A-343 (0.3 mg/kg i.v.) blood pressure increase), 1.48 mg/kg; in experiment [7], 7.57 mg/kg. In addition, the ED50 in experiment [9] is 30 mg/kg; in experiment [12] (50% reduction of vagal bradycardia), 0.077 mg/kg. Moreover, the “Ratio ED50 p.o./ED50 i.v.” value in experiment [1] (tachycardia, conscious dog) amounted to 2. Further, the IC50 (commonly the midpoint of a concentration-inhibition curve) in experiment [3] was found to be 1500 nM; in experiment [8], 50 nM; in experiment [10], 500 nM. For the same compound, the Kb in experiment [6] worked out at 14.8 nM; in [11], 513 nM. The “ID50, bronchi” value in experiment [13] amounted to 8.0 mg/kg.
In the case of `CCN(CC)CC1CCCCN1CC(=O)N1c2ccccc2C(=O)Nc2cccnc21` (stereo not drawn) [Substance B, 11-[[2-[(diethylamino)methyl]-1-piperidinyl]acetyl]-5,11-dihydro-6H-pyrido[2,3-b][1,4]benzodiazepin-6-one], the ED50 in experiment [9] was found to be 30 mg/kg.
Turning to `CN1CCN(CC(=O)N2c3ccccc3C(=O)Nc3cccnc32)CC1` [Substance C, 5,11-dihydro-11-[(4-methyl-1-piperazinyl)acetyl]-6H-pyrido[2,3-b][1,4]benzodiazepin-6one], the ED50 in [7] was 0.084 mg/kg.
Take `CN1[C@@H]2CC[C@H]1CC(OC(=O)C(CO)c1ccccc1)C2` (stereo partly drawn) [Substance D, atropine, reference compound]: the ED50 was 0.08 mg/kg in experiment [2]; 0.03 mg/kg in experiment [4]; 0.016 mg/kg in experiment [5]; 0.2 mg/kg in [9]; 0.004 mg/kg in [12]. The Kb in [6] came to 1.41 nM. Also, in experiment [13], the “ID50, bronchi” value worked out at 0.1 mg/kg.
